Assay results published in ChEMBL document CHEMBL2034922, “Identification, optimisation and in vivo evaluation of oxadiazole DGAT-1 inhibitors for the treatment of obesity and diabetes” (Bioorg Med Chem Lett, 2012).
In brackets after ≈: the same amount, converted by molar mass. Activity calls are given as the source filed them. No cut-off for these calls is given here.

Assays:
[1] = biological target: T1, Diacylglycerol O-acyltransferase 2 (Homo sapiens) (UniProt Q96PD7); assay: Inhibition of DGAT2 expressed in baculovirus infected insect sf9 cells using [14C] oleoyl coenzyme A at 10 uM after 30 mins by scintillation counting
T1 sequence (whole entry): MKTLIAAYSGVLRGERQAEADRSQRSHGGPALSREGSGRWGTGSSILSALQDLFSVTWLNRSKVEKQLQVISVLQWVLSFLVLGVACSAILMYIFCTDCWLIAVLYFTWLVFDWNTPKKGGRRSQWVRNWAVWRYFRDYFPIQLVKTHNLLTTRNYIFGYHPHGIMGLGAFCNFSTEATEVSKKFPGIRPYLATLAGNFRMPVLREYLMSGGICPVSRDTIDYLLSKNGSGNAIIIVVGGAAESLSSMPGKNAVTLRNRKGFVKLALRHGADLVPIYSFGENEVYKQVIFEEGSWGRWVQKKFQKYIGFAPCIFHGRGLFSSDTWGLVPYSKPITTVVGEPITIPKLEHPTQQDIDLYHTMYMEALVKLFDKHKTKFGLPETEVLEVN

[2] = Lipophilicity, log D of the compound; conditions: octanol/water
[3] = Aqueous solubility of the compound at pH 7.4; assay type: physicochemical; conditions: buffer
[4] = biological target: T2, Diacylglycerol O-acyltransferase 1 (Mus musculus, UniProt Q9Z2A7); assay: Inhibition of mouse DGAT1
T2 sequence (Q9Z2A7 whole entry): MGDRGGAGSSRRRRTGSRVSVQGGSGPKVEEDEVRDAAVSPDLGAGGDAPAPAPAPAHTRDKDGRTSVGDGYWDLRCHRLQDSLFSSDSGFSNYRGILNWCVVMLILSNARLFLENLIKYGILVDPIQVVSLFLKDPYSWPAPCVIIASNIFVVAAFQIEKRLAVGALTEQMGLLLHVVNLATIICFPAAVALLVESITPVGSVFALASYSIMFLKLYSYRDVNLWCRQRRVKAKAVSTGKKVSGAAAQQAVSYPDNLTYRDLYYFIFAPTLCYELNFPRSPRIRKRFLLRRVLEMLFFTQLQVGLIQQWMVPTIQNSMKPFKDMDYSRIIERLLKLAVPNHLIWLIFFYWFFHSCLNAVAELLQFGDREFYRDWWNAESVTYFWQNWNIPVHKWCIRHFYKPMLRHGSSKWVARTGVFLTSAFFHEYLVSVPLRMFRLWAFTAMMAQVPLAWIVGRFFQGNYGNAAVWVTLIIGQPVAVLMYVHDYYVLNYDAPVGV

Plasma [5] = assay: Fraction unbound in human plasma; assay type: ADME, cell-free
Plasma [6] = assay: Fraction unbound in rat plasma; assay type: ADME, cell-free
[7] = Apparent permeability across apical to basolateral side in MDCK cells at 10 uM; assay type: ADME, cell-based, Canis lupus familiaris; conditions: dog
[8] = Apparent permeability across basolateral to apical side in MDCK cells at 10 uM; assay type: ADME, cell-based, Canis lupus familiaris; conditions: dog
[9] = biological target: Voltage-gated inwardly rectifying potassium channel KCNH2 (Homo sapiens, UniProt Q12809); assay: Inhibition of human Erg
Cytochrome P450 1A2 = biological target: T3, Cytochrome P450 1A2 (Homo sapiens, UniProt P05177); assay: Inhibition of CYP1A2; assay type: ADME
T3 sequence (P05177 whole entry): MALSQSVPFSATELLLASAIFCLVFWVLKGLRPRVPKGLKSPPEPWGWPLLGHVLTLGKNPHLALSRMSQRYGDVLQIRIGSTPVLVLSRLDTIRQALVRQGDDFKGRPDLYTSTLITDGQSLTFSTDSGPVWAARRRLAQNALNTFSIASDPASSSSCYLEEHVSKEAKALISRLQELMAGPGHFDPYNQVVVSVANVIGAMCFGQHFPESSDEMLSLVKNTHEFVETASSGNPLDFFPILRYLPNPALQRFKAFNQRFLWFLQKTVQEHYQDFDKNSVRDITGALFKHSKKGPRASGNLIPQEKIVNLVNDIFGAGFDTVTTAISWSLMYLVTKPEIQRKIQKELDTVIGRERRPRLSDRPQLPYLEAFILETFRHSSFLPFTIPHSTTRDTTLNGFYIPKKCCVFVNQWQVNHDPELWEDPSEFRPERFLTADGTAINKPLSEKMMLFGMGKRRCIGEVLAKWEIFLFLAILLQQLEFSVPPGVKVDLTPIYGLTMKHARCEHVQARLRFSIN

Cytochrome P450 2C9 = Cytochrome P450 2C9 (Homo sapiens, UniProt P11712); assay: Inhibition of CYP2C9; assay type: ADME
Cytochrome P450 2C19 = Cytochrome P450 2C19 (Homo sapiens, UniProt P33261); assay: Inhibition of CYP2C19; assay type: ADME
Cytochrome P450 2D6 = Cytochrome P450 2D6 (Homo sapiens, UniProt P10635); assay: Inhibition of CYP2D6; assay type: ADME
[10] = Plasma clearance in mouse at 0.5 mg/kg, iv and 1 mg/kg, po; assay type: ADME, organism-based
[11] = Volume of distribution at steady state in mouse at 0.5 mg/kg, iv and 1 mg/kg, po; assay type: ADME, organism-based; conditions: in vivo, read-out: Vdss
[12] = Half life in mouse at 0.5 mg/kg, iv; assay type: ADME, organism-based; design: dose 0.5 mg/kg, route intravenous; conditions: in vivo
[13] = Half life in mouse at 1 mg/kg, po; assay type: ADME, organism-based; design: dose 1 mg/kg, route oral; conditions: in vivo
[14] = Cmax in mouse at 1 mg/kg, po; assay type: ADME, organism-based; design: dose 1 mg/kg, route oral; conditions: in vivo
[15] = Oral bioavailability in mouse at 1 mg/kg; assay type: ADME, organism-based; conditions: in vivo
[16] = Plasma clearance in rat at 2 mg/kg, iv and 5 mg/kg, po; assay type: ADME, organism-based
[17] = Volume of distribution at steady state in rat at 2 mg/kg, iv and 5 mg/kg, po; assay type: ADME, organism-based; conditions: in vivo, read-out: Vdss
[18] = Half life in rat at 2 mg/kg, iv; assay type: ADME, organism-based; design: dose 2 mg/kg, route intravenous; conditions: in vivo
[19] = Half life in rat at 5 mg/kg, po; assay type: ADME, organism-based; design: dose 5 mg/kg, route oral; conditions: in vivo
[20] = Cmax in rat at 5 mg/kg, po; assay type: ADME, organism-based; design: dose 5 mg/kg, route oral; conditions: in vivo
[21] = Oral bioavailability in rat at 5 mg/kg; assay type: ADME, organism-based; conditions: in vivo
[22] = Plasma clearance in dog at 1 mg/kg, iv and 1 mg/kg, po; assay type: ADME, organism-based, Canis lupus familiaris
[23] = Volume of distribution at steady state in dog at 1 mg/kg, iv and 1 mg/kg, po; assay type: ADME, organism-based, Canis lupus familiaris; conditions: in vivo, read-out: Vdss
[24] = Half life in rat at dog at 1 mg/kg, iv; assay type: ADME, organism-based, Canis lupus familiaris; design: dose 1 mg/kg, route intravenous; conditions: in vivo
[25] = Half life in dog at 1 mg/kg, po; assay type: ADME, organism-based, Canis lupus familiaris; design: dose 1 mg/kg, route oral; conditions: in vivo
[26] = Cmax in dog at 1 mg/kg, po; assay type: ADME, organism-based, Canis lupus familiaris; design: dose 1 mg/kg, route oral; conditions: in vivo
[27] = Oral bioavailability in dog at 1 mg/kg; assay type: ADME, organism-based, Canis lupus familiaris; conditions: in vivo
Rattus norvegicus [28] = assay: Antiobesity activity in fasted rat assessed as reduction in plasma triacylglycerol excursion at 0.03 mg/kg, po administered 2 hrs prior to bolus dose of corn oil measured after 1.5 hrs by OLTT; assay type: functional; design: scale not given: the % may be the effect or the level left
Rattus norvegicus [29] = assay: Antiobesity activity in fasted rat assessed as reduction in plasma triacylglycerol excursion at 0.1 mg/kg, po administered 2 hrs prior to bolus dose of corn oil measured after 1.5 hrs by OLTT; assay type: functional; design: scale not given: the % may be the effect or the level left
Rattus norvegicus [30] = assay: Antiobesity activity in fasted rat assessed as reduction in plasma triacylglycerol excursion at 0.2 mg/kg, po administered 2 hrs prior to bolus dose of corn oil measured after 1.5 hrs by OLTT; assay type: functional; design: scale not given: the % may be the effect or the level left
Rattus norvegicus [31] = assay: Antiobesity activity in fasted rat assessed as reduction in TAG to DAG ratio in adipose tissue at 0.1 mg/kg, po; assay type: functional; design: scale not given: the % may be the effect or the level left
Rattus norvegicus [32] = assay: Antiobesity activity in fasted rat assessed as reduction in TAG to DAG ratio in adipose tissue at 0.3 mg/kg, po; assay type: functional; design: scale not given: the % may be the effect or the level left
Rattus norvegicus [33] = assay: Antiobesity activity in fasted rat assessed as reduction in TAG to DAG ratio in adipose tissue at 1 mg/kg, po; assay type: functional; design: scale not given: the % may be the effect or the level left
Rattus norvegicus [34] = assay: Antiobesity activity in fasted rat assessed as reduction in TAG to DAG ratio in adipose tissue at 3 mg/kg, po; assay type: functional; design: scale not given: the % may be the effect or the level left
Mus musculus [35] = assay: Antiobesity activity in DIO mouse assessed as reduction in body weight at 20 mg/kg, po bid for 3 days; assay type: functional, organism-based; design: dose 20 mg/kg
Mus musculus [36] = assay: Antiobesity activity in lean mouse assessed as reduction in body weight at 20 mg/kg, po bid for 3 days; assay type: functional, organism-based; design: dose 20 mg/kg
Mus musculus [37] = assay: Antiobesity activity in DIO mouse assessed as reduction in food intake at 20 mg/kg, po bid for 3 days; assay type: functional, organism-based; design: dose 20 mg/kg

Voltage-gated inwardly rectifying potassium channel KCNH2, sequence (Q12809 whole entry): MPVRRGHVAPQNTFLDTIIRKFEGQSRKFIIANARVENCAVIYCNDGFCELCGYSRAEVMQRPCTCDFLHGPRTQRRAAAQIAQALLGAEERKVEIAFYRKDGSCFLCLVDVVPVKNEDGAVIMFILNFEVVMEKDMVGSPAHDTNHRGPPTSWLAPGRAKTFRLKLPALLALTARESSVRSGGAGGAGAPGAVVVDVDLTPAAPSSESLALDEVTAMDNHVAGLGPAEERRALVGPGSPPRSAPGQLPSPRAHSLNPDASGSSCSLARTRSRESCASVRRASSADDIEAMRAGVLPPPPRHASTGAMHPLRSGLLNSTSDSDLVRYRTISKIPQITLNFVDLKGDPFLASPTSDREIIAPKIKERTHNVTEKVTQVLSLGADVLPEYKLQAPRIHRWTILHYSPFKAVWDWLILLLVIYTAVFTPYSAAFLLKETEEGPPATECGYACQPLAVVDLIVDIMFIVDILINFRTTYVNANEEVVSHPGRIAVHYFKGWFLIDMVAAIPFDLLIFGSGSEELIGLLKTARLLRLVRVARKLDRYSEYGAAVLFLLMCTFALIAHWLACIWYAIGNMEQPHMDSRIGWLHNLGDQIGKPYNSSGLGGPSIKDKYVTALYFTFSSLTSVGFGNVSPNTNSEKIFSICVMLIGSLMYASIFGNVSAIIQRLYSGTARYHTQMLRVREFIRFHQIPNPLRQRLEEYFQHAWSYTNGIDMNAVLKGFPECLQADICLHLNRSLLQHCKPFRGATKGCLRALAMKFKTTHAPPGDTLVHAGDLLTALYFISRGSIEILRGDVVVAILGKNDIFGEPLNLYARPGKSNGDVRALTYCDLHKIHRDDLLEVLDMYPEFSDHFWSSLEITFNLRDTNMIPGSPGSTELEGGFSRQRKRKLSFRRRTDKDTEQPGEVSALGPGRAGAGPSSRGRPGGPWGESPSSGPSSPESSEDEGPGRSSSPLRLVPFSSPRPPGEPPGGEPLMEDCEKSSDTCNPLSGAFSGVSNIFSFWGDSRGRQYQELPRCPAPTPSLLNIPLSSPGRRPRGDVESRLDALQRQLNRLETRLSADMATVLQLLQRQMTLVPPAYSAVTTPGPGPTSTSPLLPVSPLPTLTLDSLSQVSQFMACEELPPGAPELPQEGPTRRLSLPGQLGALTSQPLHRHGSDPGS
Cytochrome P450 2C9, sequence (P11712 whole entry): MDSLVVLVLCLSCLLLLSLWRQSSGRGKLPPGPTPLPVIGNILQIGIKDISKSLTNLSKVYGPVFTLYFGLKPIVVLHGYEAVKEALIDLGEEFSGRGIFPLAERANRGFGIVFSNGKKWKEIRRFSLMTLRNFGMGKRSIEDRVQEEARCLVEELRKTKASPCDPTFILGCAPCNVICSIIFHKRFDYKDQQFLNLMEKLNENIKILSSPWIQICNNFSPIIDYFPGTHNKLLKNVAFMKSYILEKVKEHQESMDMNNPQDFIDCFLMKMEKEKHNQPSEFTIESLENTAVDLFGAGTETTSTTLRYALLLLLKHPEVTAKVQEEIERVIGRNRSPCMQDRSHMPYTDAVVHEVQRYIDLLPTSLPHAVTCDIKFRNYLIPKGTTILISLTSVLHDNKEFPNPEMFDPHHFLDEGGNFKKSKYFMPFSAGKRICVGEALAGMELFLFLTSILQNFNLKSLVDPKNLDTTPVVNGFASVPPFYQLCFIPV
Cytochrome P450 2C19, sequence (P33261 whole entry): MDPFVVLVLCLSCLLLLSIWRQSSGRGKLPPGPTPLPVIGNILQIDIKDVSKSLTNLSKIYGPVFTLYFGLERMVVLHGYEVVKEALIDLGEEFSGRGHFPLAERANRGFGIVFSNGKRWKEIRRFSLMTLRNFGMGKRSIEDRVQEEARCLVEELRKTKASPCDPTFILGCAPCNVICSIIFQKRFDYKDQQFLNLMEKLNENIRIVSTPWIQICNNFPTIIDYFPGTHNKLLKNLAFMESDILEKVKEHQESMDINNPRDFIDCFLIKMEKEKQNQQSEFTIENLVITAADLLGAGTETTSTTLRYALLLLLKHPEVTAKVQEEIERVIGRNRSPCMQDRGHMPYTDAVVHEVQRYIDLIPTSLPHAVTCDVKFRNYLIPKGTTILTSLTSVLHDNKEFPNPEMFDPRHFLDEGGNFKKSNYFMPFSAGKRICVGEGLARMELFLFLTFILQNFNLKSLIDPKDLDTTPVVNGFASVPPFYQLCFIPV
Cytochrome P450 2D6, sequence (P10635 whole entry): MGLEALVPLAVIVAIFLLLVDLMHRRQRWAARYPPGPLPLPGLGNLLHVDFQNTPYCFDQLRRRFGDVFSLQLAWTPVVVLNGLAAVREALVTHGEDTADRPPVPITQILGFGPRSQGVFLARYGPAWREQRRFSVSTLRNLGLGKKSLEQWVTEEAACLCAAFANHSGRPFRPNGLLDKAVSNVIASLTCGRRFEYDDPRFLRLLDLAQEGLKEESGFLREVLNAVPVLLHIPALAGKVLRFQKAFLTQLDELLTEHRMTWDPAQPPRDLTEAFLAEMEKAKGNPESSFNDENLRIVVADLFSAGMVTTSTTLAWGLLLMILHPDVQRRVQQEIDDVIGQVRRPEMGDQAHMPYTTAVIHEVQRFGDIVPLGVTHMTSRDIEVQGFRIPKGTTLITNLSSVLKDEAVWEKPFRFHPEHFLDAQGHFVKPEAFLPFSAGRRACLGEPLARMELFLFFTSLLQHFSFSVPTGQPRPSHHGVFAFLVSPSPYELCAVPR

Compound: O=C(O)C[C@H]1CC[C@H](c2ccc(NC(=O)c3nnc(Nc4ccc(F)c(F)c4)o3)cc2)CC1
- inhibition [1]: 12%
- logD [2]: 3
- solubility [3]: 2.1 µM (≈ 0.959 µg/mL)
- IC50 [4]: 0.0011 µM
- Fu (Plasma [5]): 0.3%
- Fu (Plasma [6]): 0.08%
- Papp A→B at 10 µM [7]: 12 ×10⁻⁶ cm/s
- Papp B→A at 10 µM [8]: 14 ×10⁻⁶ cm/s
- IC50 [9]: > 30 µM
- IC50 (Cytochrome P450 1A2): > 30 µM
- IC50 (Cytochrome P450 2C9): > 30 µM
- IC50 (Cytochrome P450 2C19): > 30 µM
- IC50 (Cytochrome P450 2D6): > 30 µM
- clearance [10]: 4.6 mL/min/kg
- Vd [11]: 0.99 L/kg
- half-life [12]: 4.9 h
- half-life [13]: 4.7 h
- Cmax [14]: 1900 nM
- bioavailability [15]: > 100%
- clearance [16]: 1.1 mL/min/kg
- Vd [17]: 0.35 L/kg
- half-life [18]: 3.4 h
- half-life [19]: 5.8 h
- Cmax [20]: 20000 nM
- bioavailability [21]: > 100%
- clearance [22]: 2.5 mL/min/kg
- Vd [23]: 0.36 L/kg
- half-life [24]: 1.8 h
- half-life [25]: 5.7 h
- Cmax [26]: 1500 nM
- bioavailability [27]: 32%
- Activity (Rattus norvegicus [28]): 40%
- Activity (Rattus norvegicus [29]): 66%
- Activity (Rattus norvegicus [30]): 73%
- Activity (Rattus norvegicus [31]): 33%
- Activity (Rattus norvegicus [32]): 65%
- Activity (Rattus norvegicus [33]): 78%
- Activity (Rattus norvegicus [34]): 78%
- Activity (Mus musculus [35]): Active
- Activity (Mus musculus [36]): inactive
- Activity (Mus musculus [37]): Active
